Assay results reported in ChEMBL document CHEMBL1201862, “PubChem BioAssay data set” (2004).
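Each compound was tested at five concentrations against cells in 96-well plates for 48 hours. GI50: concentration for 50% inhibition of growth.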 Active and inactive are the calls of the source. Rule as the data show it: active = GI50 up to about 1.1 µM and inactive = higher.

Tests used:
Experiment in all cases: NCI tumour cell line growth inhibition, 48 h
[1] = tested on: TK-10
[2] = tested on: LOX IMVI
[3] = tested on: OVCAR-8
[4] = tested on: MOLT-4
[5] = tested on: COLO 205
[6] = tested on: HT-29
[7] = tested on: T47D
[8] = tested on: UACC-62
[9] = tested on: ACHN
[10] = tested on: SF-295
[11] = tested on: SK-MEL-28
[12] = tested on: SW-620
[13] = tested on: NCI-H460
[14] = tested on: EKVX
[15] = tested on: 786-0
[16] = tested on: HCT-15
[17] = tested on: A549
[18] = tested on: NCI-H23
[19] = tested on: BT-549
[20] = tested on: SNB-75
[21] = tested on: NCI-H226
[22] = tested on: SF-539
[23] = tested on: OVCAR-5
[24] = tested on: HL-60
[25] = tested on: A498
[26] = tested on: SK-MEL-2
[27] = tested on: MDA-N
[28] = tested on: KM12
[29] = tested on: MDA-MB-231
[30] = tested on: RPMI-8226
[31] = tested on: HCT-116
[32] = tested on: UO-31
[33] = tested on: SNB-19
[34] = tested on: K562
[35] = tested on: NCI-H522
[36] = tested on: Hs-578T
[37] = tested on: SN12C
[38] = tested on: DU-145
[39] = tested on: UACC-257
[40] = tested on: CCRF-CEM
[41] = tested on: SF-268
[42] = tested on: IGROV-1
[43] = tested on: CAKI-1
[44] = tested on: MDA-MB-435
[45] = tested on: HOP-92
[46] = tested on: SK-OV-3
[47] = tested on: HOP-62
[48] = tested on: RXF 393
[49] = tested on: M14
[50] = tested on: PC-3
[51] = tested on: OVCAR-4
[52] = tested on: U-251
[53] = tested on: NCI/ADR-RES
[54] = tested on: Malme-3M
[55] = tested on: MCF7
[56] = tested on: SK-MEL-5
[57] = tested on: SR
[58] = tested on: OVCAR-3

Compound: NC1=NC(c2ccc(Cl)cc2)N(c2ccc(S(=O)(=O)Nc3ncccn3)cc2)C(N)=N1 (stereo unspecified)
- GI50 [1]: > 100 µM (inactive)
- GI50 [2]: > 100 µM (inactive)
- GI50 [3]: > 100 µM (inactive)
- GI50 [4]: 54.8 µM (inactive)
- GI50 [5]: > 100 µM (inactive)
- GI50 [6]: > 100 µM (inactive)
- GI50 [7]: > 100 µM (inactive)
- GI50 [8]: > 100 µM (inactive)
- GI50 [9]: > 100 µM (inactive)
- GI50 [10]: > 100 µM (inactive)
- GI50 [11]: > 100 µM (inactive)
- GI50 [12]: > 100 µM (inactive)
- GI50 [13]: > 100 µM (inactive)
- GI50 [14]: > 100 µM (inactive)
- GI50 [15]: > 100 µM (inactive)
- GI50 [16]: > 100 µM
- GI50 [17]: > 100 µM (inactive)
- GI50 [18]: > 100 µM (inactive)
- GI50 [19]: > 100 µM (inactive)
- GI50 [20]: > 100 µM (inactive)
- GI50 [21]: > 100 µM (inactive)
- GI50 [22]: > 100 µM (inactive)
- GI50 [23]: > 100 µM (inactive)
- GI50 [24]: 0.178 µM (active)
- GI50 [25]: > 100 µM (inactive)
- GI50 [26]: > 100 µM (inactive)
- GI50 [27]: > 100 µM (inactive)
- GI50 [28]: > 100 µM (inactive)
- GI50 [29]: > 100 µM (inactive)
- GI50 [30]: > 100 µM (inactive)
- GI50 [31]: > 100 µM (inactive)
- GI50 [32]: > 100 µM (inactive)
- GI50 [33]: > 100 µM (inactive)
- GI50 [34]: > 100 µM (inactive)
- GI50 [35]: > 100 µM (inactive)
- GI50 [36]: > 100 µM (inactive)
- GI50 [37]: > 100 µM (inactive)
- GI50 [38]: > 100 µM (inactive)
- GI50 [39]: > 100 µM (inactive)
- GI50 [40]: > 100 µM (inactive)
- GI50 [41]: > 100 µM (inactive)
- GI50 [42]: > 100 µM (inactive)
- GI50 [43]: > 100 µM (inactive)
- GI50 [44]: > 100 µM (inactive)
- GI50 [45]: > 100 µM (inactive)
- GI50 [46]: > 100 µM (inactive)
- GI50 [47]: > 100 µM (inactive)
- GI50 [48]: > 100 µM (inactive)
- GI50 [49]: > 100 µM (inactive)
- GI50 [50]: > 100 µM (inactive)
- GI50 [51]: > 100 µM (inactive)
- GI50 [52]: > 100 µM (inactive)
- GI50 [53]: > 100 µM (inactive)
- GI50 [54]: > 100 µM (inactive)
- GI50 [55]: > 100 µM (inactive)
- GI50 [56]: > 100 µM (inactive)
- GI50 [57]: > 100 µM (inactive)
- GI50 [58]: > 100 µM (inactive)

Compound: CCn1c(-c2ccc(OC(C)=O)cc2)c(C)c2cc(OC(C)=O)ccc21 [ZINDOXIFENE]
- GI50 [1]: 20 µM (inactive)
- GI50 [2]: 11.9 µM (inactive)
- GI50 [3]: 20 µM (inactive)
- GI50 [4]: 8.49 µM (inactive)
- GI50 [5]: 21.7 µM (inactive)
- GI50 [6]: 29.5 µM (inactive)
- GI50 [7]: 19.4 µM (inactive)
- GI50 [8]: 13.2 µM (inactive)
- GI50 [9]: 19.4 µM (inactive)
- GI50 [10]: 24 µM (inactive)
- GI50 [11]: 16.5 µM (inactive)
- GI50 [12]: 23.4 µM (inactive)
- GI50 [13]: 6.04 µM (inactive)
- GI50 [14]: 17.9 µM (inactive)
- GI50 [15]: 21.9 µM (inactive)
- GI50 [16]: 3.79 µM
- GI50 [17]: 15.4 µM (inactive)
- GI50 [18]: 24.1 µM (inactive)
- GI50 [19]: 29.4 µM (inactive)
- GI50 [20]: 16.5 µM (inactive)
- GI50 [21]: 30.1 µM (inactive)
- GI50 [22]: 15.8 µM (inactive)
- GI50 [23]: 24.9 µM (inactive)
- GI50 [24]: 11 µM (inactive)
- GI50 [25]: 23.6 µM (inactive)
- GI50 [26]: 18.5 µM (inactive)
- GI50 [27]: 17.3 µM (inactive)
- GI50 [28]: 12.9 µM (inactive)
- GI50 [29]: 14.6 µM (inactive)
- GI50 [30]: 12.5 µM (inactive)
- GI50 [31]: 6.84 µM (inactive)
- GI50 [32]: 20.7 µM (inactive)
- GI50 [33]: 31 µM (inactive)
- GI50 [34]: 11.8 µM (inactive)
- GI50 [35]: 17.4 µM (inactive)
- GI50 [36]: 13.9 µM (inactive)
- GI50 [37]: 27.5 µM (inactive)
- GI50 [38]: 18.5 µM (inactive)
- GI50 [39]: 27 µM (inactive)
- GI50 [40]: 23.3 µM (inactive)
- GI50 [41]: 16.6 µM (inactive)
- GI50 [42]: 24 µM (inactive)
- GI50 [43]: 24.3 µM (inactive)
- GI50 [44]: 12.5 µM (inactive)
- GI50 [45]: 30.1 µM (inactive)
- GI50 [46]: 23.1 µM (inactive)
- GI50 [47]: 21.3 µM (inactive)
- GI50 [48]: 6.82 µM (inactive)
- GI50 [49]: 18.1 µM (inactive)
- GI50 [50]: 13.7 µM (inactive)
- GI50 [51]: 18.1 µM (inactive)
- GI50 [52]: 11.3 µM (inactive)
- GI50 [53]: 24.9 µM (inactive)
- GI50 [54]: 21.7 µM (inactive)
- GI50 [55]: 18 µM (inactive)
- GI50 [56]: 13.8 µM (inactive)
- GI50 [57]: 5.27 µM (inactive)
- GI50 [58]: 16.7 µM (inactive)
